# Patent publication US9988626B2, “Neurocalcin delta inhibitors and therapeutic and non-therapeutic uses thereof” (Universität Zu Köln, priority 2013, dated 2018)
# Entries after “also recorded” stand apart in the source; their conditions may differ.
# Tests used:
# zebrafish larvae = test: Endocytosis inhibitor treatment of zebrafish, motor axon phenotype; assay type: in vivo
# Procedure: The in vivo effect of inhibition of endocytosis on MN outgrowth was investigated by the use of the pharmacological inhibitors Pitstop2 and Dynasore (both Abcam) in the SMA zebrafish model. Motor axons of treated zebrafish larvae were analyzed by fluorescence microscopy. For immunohistochemistry, zebrafish were manually dechorionated and fixed in 4% PFA-PBS at 34 hours post fertilization. To permeabilize the larvae for the following antibody staining, collagenase digest of the whole animal was performed. To visualize the primary motor axons, fish were incubated at 4° C. over night in 500 μl PBS-T/1% DMSO/10% FCS containing znp-1 antibody (1:300, Hybridoma Bank). Fish were stained in PBS-T/1% DMSO/10% FCS containing secondary donkey anti-mouse antibody labelled with Alexafluor 488 (1:200, Invitrogen) after all-day washing in PBS-T/1% FCS/1% BSA (changing solution every hour). After repeated washing in PBS-T and PBS, fish were stored in 80% glycerol/20% PBS in the dark at 4° C. Labelled fish were embedded in low-melting agarose micro slides and analysed using a fluorescence microscope (AxioImager M2, Zeiss). The structure of each of the first ten motor axons posterior to the yolk was analysed, rated as: 1) normal, 2) truncated (truncation ventral from midline), 3) severely truncated (shorter than midline), 4) branched I (branching ventral from midline), 5) branched II (branching at midline), or 6) branched BI (branching dorsal from midline) and statistically evaluated using Excel (Microsoft). Dynasore (dynamin inhibitor) and Pitstop2 (clathrin inhibitor) (both Abcam) were dissolved as stock solution (50 mM) in DMSO and stored at −20° C. Zebrafish were treated with the respective concentrations starting at 16 hpf. To do so, fish were dechorionated and substance was added to the embryo medium. Fish larvae were incubated at 28° C. in an incubator on a rocking platform (20 rpm) until fixed in PBS-PFA at 34 hpf. Subsequently fish were stained with znp-1 antibody, as described above.
# NSC34 cells = test: FITC-dextran endocytosis assay of NSC34 cells treated with Ionomycin; assay type: cell-based, mouse; details: presence vs absence of Ionomycin, n=50
# Procedure: To unravel differences in endocytosis performance, cells (fibroblasts and NSC34) were starved and subsequently incubated with FITC-dextran. FITC-uptake after respective incubation times was quantified either by microscopic analysis or by FACS.
# One day before the measurement, some 15,000 fibroblasts per well (4-well EZ slides, Millipore) were plated out in 500 μl normal DMEM growth medium (Invitrogen). Cells were starved for 10 minutes in starvation media (DMEM transparent (HEPES), 2% FKS) at 37° C. For endocytosis, cells were treated with FITC dextran solution (5 mg/ml FITC-dextran in starvation medium) for respective time period at 37° C. Subsequently, medium was removed and cells were washed three times with ice-cold PBS on ice and fixed in 4% paraformaldehyde for ten minutes. After subsequent washing (2 times in PBS) cells were stained with Alexafluor 568 phalloidin (Invitrogen, 2 hours at 4° C.). Then, after washing cells were stained with DAPI and mounted with Mowiol (Sigma). Finally, FITC fluorescence was monitored at the fluorescence microscope (Axiolmager M2, Zeiss) and quantified using the Zen software (Zeiss) and evaluated with Excel (Microsoft).
# Ncald = test: Knockdown efficiency of shRNA constructs in NSC34 cells (qRT-PCR of Ncald levels); assay type: cell-based, mouse; details: transient transfection of NSC34 cells, 72 h
# Procedure: Before starting the cloning of the targeting construct for the mouse generation, we constructed and tested five individual shRNA elements targeting the Ncald gene. To do so, we transiently transfected five different shRNA-Ncald constructs in murine NSC34 cells and analysed the knockdown efficiency after 72 h. […] For further testing, we cloned selected shRNA sequences into the vector pEx-H1tetO-CAG-tetR carrying all necessary elements of the tetO/R system which allow later induction of the shRNA-expression by administration of doxycycline (Dox) (Kleinhammer et al. 2011). Currently, after we could verify the dox-inducible capability of two shRNA constructs to knockdown Ncald, we are producing stable murine embryonic cell lines (ES cells) to subsequently generate two individual transgenic mouse strains containing inducible Ncald knockdown vectors. These mice will later be crossed on SMA background to investigate the protective ability of Ncald downregulation.
# The knockdown efficiency of five individual shRNA sequences was tested by qRT-PCR-based quantification of Ncald levels, 72 h after knockdown using different shRNA sequences. Transient transfection of NSC34 cells. The respective sequences are those of SEQ ID NO: 15-19 as shown above.
compound,measurement,setting,value
O=C(N/N=C/c1ccc(O)c(O)c1)c1cc2ccccc2cc1O [Dynasore],"Motor axon truncation, inhibitor alone or with low smn MO",zebrafish larvae; Dynasore alone or in combination with low smn MO,SMA-like axonal truncations
C[C@H](CCC(=O)O)C[C@H](C)C[C@H](C)C(=O)/C=C(\O)[C@H](C)C[C@H](C)C/C=C/[C@@H](C)[C@@H](O)[C@@H](C)[C@@H](O)C[C@@H]1CC[C@@](C)([C@H]2CC[C@@](C)([C@@H](C)O)O2)O1 [Ionomycin],Endocytosis (FITC-dextran),NSC34 cells,significant increase in endocytosis; also recorded: significantly increased endocytosis
O=C1NC(=NS(=O)(=O)c2cccc3ccccc23)S/C1=C\c1ccc(Br)cc1 [Pitstop2],"Motor axon truncation, inhibitor in combination with smn MO",zebrafish larvae; subphenotypical smn MO (2 ng) plus Pitstop2,significant elevation in the number of truncated motor axons
same,"Motor axon truncation, inhibitor in combination with smn MO","zebrafish larvae; subphenotypical smn MO (2 ng) plus Pitstop2, listed as Pitstop",synergistic effect
"shRNA #4: shRNA knocking down mouse NCALD, one of five of SEQ ID NO: 15-19 (DNA CCGGCGCCAGATGGATACCAATAGACTGGAGTCTATTGGTATCCATCTGGCGTTTTTG)",Knockdown efficacy of Ncald,Ncald,sufficient knockdown efficacy
"shRNA #5: shRNA knocking down mouse NCALD, one of five of SEQ ID NO: 15-19 (DNA CCGGGCTTCCAAATTTGCAGAGCATCTGGAGATGCTCTGCAAATTTGGAAGCTTTTTG)",Knockdown efficacy of Ncald,Ncald,sufficient knockdown efficacy
